Consider four molecules from US11504369B2, “Cytosine-based TET enzyme inhibitors” (President and Trustees of Bates College, priority 2019, dated 2022).

pIC50: −log10 of the molar value. “Also recorded” adds a separate entry of the source.

The subject of experiment [1] is HT22 cells. The experiment can be described thus: Whole genome bisulfite sequencing in HT22 cells. It is filed as cell-based, mouse. Conditions: 10 μM, 24 hours. On the procedure:
Whole genome bisulfite sequencing in HT22 cells was performed. […] Generally, the genome was broken into windows each containing 25 CpGs, and an analysis was performed to determine differentially methylated regions. […] Additionally, the differentially methylated regions (DMRs) were highly associated with DMRs detected for those Tet gene deficient cells/tissue.
HT-22 cells were provided by David Schubert at the Salk Institute (San Diego, Calif.). Cells were cultured in Dulbecco's Modified Eagle Medium (Life Technologies, Carlsbad, Calif.) supplemented with 10% FBS, 100 U/ml penicillin, and 100 μg/ml streptomycin (Life Technologies, Carlsbad, Calif.) at 37° C. and 5% CO2. […]
Cells were lysed and gDNA was extracted (Qiagen, DNeasy), bisulfite converted (Accel-NGS Methyl-Seq DNA Library, Swift), and sequenced (Hudson Alpha Discovery) on the Illumina platform (HiSeq_X10, paired end, 150 bp, 500 million reads per sample). Reads were QC'd by FastQC (v0.11.5), filtered by quality (average quality score <20), Illumina adapters removed, and sequencing primers trimmed using Trim_Galore! […] The filtered and trimmed reads were then mapped to the mouse genome (mm10), deduplicated, and CpG methylation levels extracted using Bismark (v0.19.0). Altered CpG methylation was determined by dividing the mouse genome into ˜850,000 windows, each containing 25 CpG sites. […]

In experiment [2] the target is T1, TET1 (Homo sapiens, UniProt Q8NFU7).
T1 construct: purchased Bioscience 50651
The experiment can be described thus: Chemiluminescence ELISA of TET1-mediated oxidation of methylated DNA. The settings on record: for TET1 inhibition (in words): compound at 100 μM in ELISA. It is filed as biochemical. On the procedure: To determine whether cytosine analogs inhibited TET-mediated oxidation of methylated DNA, the amount of hydroxymethylcytosine in reactions containing TET enzyme alone or TET enzyme and a cytosine analog were determined using chemiluminescence ELISA assays.
Procedure adapted from manual (Bioscience; TET1: 50651, TET2: 50652). Prepare TBST buffer (1× TBS, pH 8.0, containing 0.05% Tween-20). Dilute 4.0× TET Assay Buffer (TAB) to 1.5× TAB and 1.0× TAB evenly with diluted water. Thaw and dilute (5.0 ng/μl for TET1 and 10 ng/μl for TET2) TET enzyme from kit with 1.0× TAB. Dilute primary antibody 100-fold with blocking buffer. Diluted secondary antibody 1000-fold with blocking buffer. Dilute DMSO inhibitor solutions with 1.0× TAB to wanted concentration (ensure solutions are 5% DMSO). To 96-well plate provided, add 200 μl TBST buffer to each well and incubate at room temperature for 15 min. Remove TBST buffer and add 20 μl 1.5× TAB, 10 μl inhibitor solution, 20 μl diluted TET to each well. For controls, add 10 μl 5% DMSO solution and 20 μl 1.0× TAB. Incubate at room temperature for 2 h. Remove reaction solution and wash 3× with TBST buffer (200, 200, and 100 μl). Add 100 μl […] diluted primary antibody and shake at room temperature for 1 h. Remove diluted primary antibody and wash 3× with TBST buffer (200, 200, and 100 μl). Add 100 μl blocking buffer to each well and shake at room temperature for 10 min. Remove blocking buffer. Add 100 μl diluted secondary antibody. Shake at room temperature for 30 min. Remove diluted secondary antibody and wash 3× with TBST buffer (200, 200, and 100 μl). Add 100 μl blocking buffer to each well and shake at room temperature for 10 min. Remove blocking buffer. Combine horseradish peroxidase (HRP) substrate A and HRP substrate B at 1:1 ratio. Add 100 μl of HRP solution to each well. Immediately, read chemiluminescence (BioTek Synergy 2 plate reader).
(In an ELISA, binding on a coated surface is turned into a signal by an enzyme label.)

In experiment [3] the test system is DNMT3a. Nature of the experiment: Inhibitory assay for DNMT3a. It is filed as biochemical. The settings on record: concentration of 500 μM.
Experiment [4] deals with T2, TET2 (Homo sapiens, UniProt Q6N021).
T2 construct: purchased Bioscience 50652
Nature of the experiment: Chemiluminescence ELISA of TET2-mediated oxidation of methylated DNA. It is filed as biochemical. Conditions: dose-response.
Method: Procedure adapted from manual (Bioscience; TET1: 50651, TET2: 50652). Prepare TBST buffer (1× TBS, pH 8.0, containing 0.05% Tween-20). […] Dilute primary antibody 100-fold with blocking buffer. Diluted secondary antibody 1000-fold with blocking buffer. […] To 96-well plate provided, add 200 μl TBST buffer to each well and incubate at room temperature for 15 min. Remove TBST buffer and add 20 μl 1.5× TAB, 10 μl inhibitor solution, 20 μl diluted TET to each well. For controls, add 10 μl 5% DMSO solution and 20 μl 1.0× TAB. Incubate at room temperature for 2 h. Remove reaction solution and wash 3× with TBST buffer (200, 200, and 100 μl). Add 100 μl blocking buffer 53 μl diluted primary antibody and shake at room temperature for 1 h. Remove diluted primary antibody and wash 3× with TBST buffer (200, 200, and 100 μl). Add 100 μl blocking buffer to each well and shake at room temperature for 10 min. Remove blocking buffer. Add 100 μl diluted secondary antibody. Shake at room temperature for 30 min. […] Immediately, read chemiluminescence (BioTek Synergy 2 plate reader).

T1 sequence (Q8NFU7 whole entry): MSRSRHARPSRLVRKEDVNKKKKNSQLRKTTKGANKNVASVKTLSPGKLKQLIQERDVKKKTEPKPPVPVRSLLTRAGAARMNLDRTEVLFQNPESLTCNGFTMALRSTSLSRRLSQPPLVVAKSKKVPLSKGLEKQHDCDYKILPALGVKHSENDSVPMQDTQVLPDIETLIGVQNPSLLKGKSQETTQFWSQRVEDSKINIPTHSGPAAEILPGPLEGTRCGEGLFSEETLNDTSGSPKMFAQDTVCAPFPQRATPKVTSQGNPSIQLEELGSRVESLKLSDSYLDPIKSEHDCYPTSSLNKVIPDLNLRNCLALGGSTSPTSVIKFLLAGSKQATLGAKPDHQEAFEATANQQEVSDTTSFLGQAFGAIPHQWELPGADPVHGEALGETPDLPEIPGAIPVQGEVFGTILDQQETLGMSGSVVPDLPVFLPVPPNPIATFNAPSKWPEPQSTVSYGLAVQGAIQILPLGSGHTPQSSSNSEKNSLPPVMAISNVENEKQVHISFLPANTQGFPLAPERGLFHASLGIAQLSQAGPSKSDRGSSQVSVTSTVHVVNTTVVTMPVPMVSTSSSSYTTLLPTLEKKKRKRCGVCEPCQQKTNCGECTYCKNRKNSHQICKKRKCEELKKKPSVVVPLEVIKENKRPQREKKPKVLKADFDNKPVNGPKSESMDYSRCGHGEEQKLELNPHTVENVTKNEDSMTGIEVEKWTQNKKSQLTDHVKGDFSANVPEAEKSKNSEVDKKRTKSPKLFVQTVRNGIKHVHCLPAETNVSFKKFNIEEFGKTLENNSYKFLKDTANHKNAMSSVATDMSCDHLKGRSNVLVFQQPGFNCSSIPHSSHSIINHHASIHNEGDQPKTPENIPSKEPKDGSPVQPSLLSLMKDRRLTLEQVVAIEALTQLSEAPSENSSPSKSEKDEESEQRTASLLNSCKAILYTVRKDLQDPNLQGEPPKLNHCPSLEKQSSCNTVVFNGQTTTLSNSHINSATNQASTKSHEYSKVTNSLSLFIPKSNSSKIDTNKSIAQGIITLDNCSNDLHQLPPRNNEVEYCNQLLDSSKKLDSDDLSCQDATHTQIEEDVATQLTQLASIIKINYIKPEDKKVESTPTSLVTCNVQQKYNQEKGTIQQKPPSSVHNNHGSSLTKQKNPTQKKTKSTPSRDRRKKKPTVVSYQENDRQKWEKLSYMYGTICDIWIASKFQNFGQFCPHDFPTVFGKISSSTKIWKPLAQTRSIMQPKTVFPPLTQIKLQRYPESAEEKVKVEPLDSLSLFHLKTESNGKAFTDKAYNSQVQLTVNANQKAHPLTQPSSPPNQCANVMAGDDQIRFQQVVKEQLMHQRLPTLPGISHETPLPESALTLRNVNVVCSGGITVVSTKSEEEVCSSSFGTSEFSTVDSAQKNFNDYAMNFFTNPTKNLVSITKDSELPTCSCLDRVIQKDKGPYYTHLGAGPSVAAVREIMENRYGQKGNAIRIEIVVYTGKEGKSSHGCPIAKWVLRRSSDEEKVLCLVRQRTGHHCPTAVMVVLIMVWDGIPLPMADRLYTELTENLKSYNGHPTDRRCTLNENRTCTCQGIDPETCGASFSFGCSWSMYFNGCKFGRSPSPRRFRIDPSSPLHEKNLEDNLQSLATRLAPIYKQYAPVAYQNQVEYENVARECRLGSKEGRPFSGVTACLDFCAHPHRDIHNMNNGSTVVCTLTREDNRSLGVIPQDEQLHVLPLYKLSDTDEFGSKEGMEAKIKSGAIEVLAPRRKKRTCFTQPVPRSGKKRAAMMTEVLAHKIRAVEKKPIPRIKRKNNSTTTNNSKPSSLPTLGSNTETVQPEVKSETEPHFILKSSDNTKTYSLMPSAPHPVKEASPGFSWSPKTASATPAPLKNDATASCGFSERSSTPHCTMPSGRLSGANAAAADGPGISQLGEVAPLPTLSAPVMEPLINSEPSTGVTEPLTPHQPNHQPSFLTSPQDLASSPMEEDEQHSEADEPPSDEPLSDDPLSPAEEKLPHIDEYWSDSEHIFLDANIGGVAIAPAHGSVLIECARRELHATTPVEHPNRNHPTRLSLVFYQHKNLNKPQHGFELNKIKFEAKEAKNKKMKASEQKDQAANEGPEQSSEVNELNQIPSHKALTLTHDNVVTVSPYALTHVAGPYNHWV

Take `Nc1nc(=O)n(-c2cccc(-c3ccccc3)c2)cc1Cl` [Bobcat339, 1-([1,1′-biphenyl]-3-yl)-4-amino-5-chloropyrimidin-2(1H)-one]: in experiment [1], the “differentially methylated regions (windows of 25 CpGs)” value is reported as “A thousand such regions were observed, most of which are hypermethylated” and the “global CpG methylation” value is recorded as “significant change in global CpG methylation”. The “TET1 inhibition (in words)” value in experiment [2] is on record as “significantly enhanced activity”. The “TET1 inhibition (in words)” value in experiment [2] (listed as 3-biphenyl) was “significantly increased TET1 inhibition”. For the same molecule, the pIC50 (usually −log10 of the IC50, conventionally taken in molar units) in experiment [2] (dose-response, N=3) is 4.48. Besides, the “inhibition of DNMT3a” value in experiment [3] is “failing to show substantial inhibition; also recorded: but not DNMT3a”.
Regarding `Nc1nc(=O)n(-c2ccc(-c3ccccc3)cc2)cc1Cl` [Bobcat219, 1-([1,1′-biphenyl]-4-yl)-4-amino-5-chloropyrimidin-2(1H)-one], the “TET1 inhibition (in words)” value in experiment [2] was “significantly reduced TET1 inhibition”.
In the case of `Nc1nc(=O)n(-c2ccccc2)cc1Cl` [Bobcat216, 4-amino-5-chloro-1-phenylpyrimidin-2(1H)-one], in experiment [4], the pIC50 was 4.01.
Turning to `Nc1nc(=O)n(-c2ccccc2-c2ccccc2)cc1Cl` [Bobcat337, 1-([1,1′-biphenyl]-2-yl)-4-amino-5-chloropyrimidin-2(1H)-one], in experiment [2], the “TET1 inhibition (in words)” value was “significantly reduced TET1 inhibition”.
